Laboratory results reported in paper PMC9551036, “A selective and orally bioavailable VHL-recruiting PROTAC achieves SMARCA2 degradation in vivo” (Nature Communications, 2022).
In brackets after ≈: the same amount, converted by molar mass. Several values for one entry are separate records, joined by “and”; a condition that tells them apart may be missing. Equal values may be shown once. Read-outs that look alike come from different tables or passages of the source.

Tests used:
[1] = test system: VCB: PROTAC: SMARCA2^BD ternary complex; experiment: TR-FRET ternary complex affinity and cooperativity, SMARCA2; assay type: binding, human; conditions: ratio TR-FRET EC50 / TR-FRET EC50 +VCB measured in the same run, SMARCA2BD
[2] = Solubility testing; assay type: physicochemical; conditions: for solubility at 24 h: buffer, kinetic from dmso stock
Protocol: Dilution into a 1:1 mixture of acetonitrile and water was used as reference. After 24 h, the incubations were filtrated, and the filtrate was analyzed by LC-UV.

[3] = Microsomal stability; assay type: in vitro ADME; conditions: for Mic. Stab. Human / Mic. Stab. Human QH: human liver microsomes; for Mic. Stab. Mouse / Mic. Stab. Mouse QH: mouse liver microsomes; for Mic. Stab. Rat / Mic. Stab. Rat QH: rat liver microsomes
Protocol: […] Reactions were terminated by addition of acetonitrile and precipitates separated by centrifugation. Compound concentrations in supernatants were measured by HPLC-MS/MS and clearance was calculated from compound half-lives using the well-stirred liver model.

[4] = test system: Caco-2 cell monolayer; experiment: Bidirectional permeability measurement in Caco-2 cells; assay type: in vitro ADME
In short: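 Compound quantified by LC-MS/MS in samples taken over up to 2 h across 14–21-day Caco-2 monolayers, after 24 h preincubation with 1 µM compound. Runs done without and with 5 µM zosuquidar to probe P-gp. Efflux ratio is the quotient of duplicate-mean Papp,BA over Papp,AB.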

[5] = target: T1, PBRM1BD5 (Homo sapiens, UniProt P40337+Q86U86); experiment: TR-FRET ternary complex affinity and cooperativity, PBRM1; assay type: binding; conditions: TR-FRET competition for PBRM1BD5, + VCB; mean ± SD; read-out: TR-FRET Ternary PBRM1BD EC50 (PROTAC + VCB)
T1 construct: GST (TEV site) (N); His6 (TEV site) (N, cleaved yes); made in house; host or cells: PBRM1^BD5: Escherichia coli BL21(DE3)
T1 sequence (Q86U86 645-766): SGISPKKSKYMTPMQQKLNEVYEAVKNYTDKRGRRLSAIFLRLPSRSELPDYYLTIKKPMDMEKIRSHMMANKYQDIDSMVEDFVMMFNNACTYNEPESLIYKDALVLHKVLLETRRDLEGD
T1 sequence (P40337 54-213): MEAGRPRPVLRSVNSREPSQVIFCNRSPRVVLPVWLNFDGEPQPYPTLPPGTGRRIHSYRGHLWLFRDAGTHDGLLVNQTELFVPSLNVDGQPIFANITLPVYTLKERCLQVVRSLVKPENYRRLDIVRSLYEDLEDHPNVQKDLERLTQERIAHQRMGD
T1 sequence (Q15369 17-112 partner): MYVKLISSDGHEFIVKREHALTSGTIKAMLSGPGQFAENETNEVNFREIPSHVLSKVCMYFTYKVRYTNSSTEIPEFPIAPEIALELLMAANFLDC
T1 sequence (Q15370 1-104 partner): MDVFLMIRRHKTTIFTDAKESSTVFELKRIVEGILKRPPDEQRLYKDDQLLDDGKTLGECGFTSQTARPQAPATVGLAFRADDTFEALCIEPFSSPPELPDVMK

[6] = test system: PBRM1BD5; experiment: as above; assay type: binding; conditions: ratio TR-FRET EC50 / TR-FRET EC50 +VCB measured in the same run, PBRM1BD5
[7] = target: VCB: PROTAC: SMARCA4^BD ternary complex (Homo sapiens, UniProt P40337+P51532); experiment: SPR ternary complex measurement, VCB immobilised, 10 µM SMARCA4^BD present; assay type: binding; design: P51532, residues 1448–1569 with additional N-terminal SM residues; His6 (TEV site) (N, cleaved yes); GST (TEV site) (N, cleaved yes); made in house; host or cells: SMARCA4^BD: Escherichia coli BL21(DE3); conditions: for Kd: SPR; for alpha: cooperativity, SMARCA4, ratio of KD values measured in the same run
VCB: PROTAC: SMARCA4^BD ternary complex, sequence (P40337 54-213): as the sequence (P40337 54-213) above
VCB: PROTAC: SMARCA4^BD ternary complex, sequence (Q15369 17-112 partner limits assumed): as the sequence (Q15369 17-112 partner) above
VCB: PROTAC: SMARCA4^BD ternary complex, sequence (Q15370 1-104 partner limits assumed): as the sequence (Q15370 1-104 partner) above
VCB: PROTAC: SMARCA4^BD ternary complex, sequence (P51532 1448-1569): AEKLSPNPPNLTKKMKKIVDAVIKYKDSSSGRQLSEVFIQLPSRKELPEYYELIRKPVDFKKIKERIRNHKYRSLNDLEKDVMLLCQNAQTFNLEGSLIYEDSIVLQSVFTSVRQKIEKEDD
Protocol: (§1) SPR data were acquired on Biacore 8K or T200 instruments (Cytiva). Target proteins were immobilised at 25 °C on CM5 chips by amine coupling (EDC/NHS, Cytiva) in HBS-P+ running buffer (pH 7.4), containing 2 mM TCEP. […] The reference surface was subsequently deactivated using 1 M ethanolamine. […] Biotinylated VCB was prepared as previously described[27]: in brief, the complex was mixed 1:1 with EZ-Link NHS–PEG4–biotin (Thermo Scientific) and incubated at room temperature for 1 h. Unreacted NHS-biotin was removed using a PD-10 desalting column (Cytiva) into 20 mM HEPES, pH 7.5, 150 mM sodium chloride and 1 mM DTT. The reference surface was generated by deactivating the EDC/NHS-treated surface with 1 M ethanolamine. All interaction experiments were done at 6 °C in running buffer (20 mM TRIS, pH 8.3, 150 mM potassium chloride, 2 mM magnesium chloride, 2 mM TCEP, 0.005% TWEEN 20, 1% dimethyl sulfoxide). For ternary complex measurements, a sensor chip surface with VCB immobilised was used (preparation as described above). Experiments were run in dual-inject mode with 10 µM SMARCA present during the injection and dissociation phase. Sensorgrams from reference surfaces and blank injections were subtracted from the raw data prior to data analysis using Biacore Insight software. Affinity and binding kinetic parameters were determined by global fitting using the 1:1 interaction model with a term for mass-transport included.

[8] = target: VCB: PROTAC: SMARCA2^BD ternary complex (Homo sapiens, UniProt P40337+P51531); experiment: SPR ternary complex measurement, VCB immobilised, 10 µM SMARCA2^BD present; assay type: binding; design: P51531-2, residues 1373-1493 with additional N-terminal SM residues; His6 (TEV site) (N, cleaved yes); GST (TEV site) (N, cleaved yes); made in house; host or cells: SMARCA2^BD: Escherichia coli BL21(DE3); conditions: for Kd: SPR; for alpha: cooperativity, SMARCA2, ratio of KD values measured in the same run
VCB: PROTAC: SMARCA2^BD ternary complex (Homo sapiens, UniProt P40337+P51531), sequence (P40337 54-213): as the sequence (P40337 54-213) above
VCB: PROTAC: SMARCA2^BD ternary complex (Homo sapiens, UniProt P40337+P51531), sequence (Q15369 17-112 partner limits assumed): as the sequence (Q15369 17-112 partner) above
VCB: PROTAC: SMARCA2^BD ternary complex (Homo sapiens, UniProt P40337+P51531), sequence (Q15370 1-104 partner limits assumed): as the sequence (Q15370 1-104 partner) above
VCB: PROTAC: SMARCA2^BD ternary complex (Homo sapiens, UniProt P40337+P51531), sequence (P51531 1373-1493 isoform P51531-2): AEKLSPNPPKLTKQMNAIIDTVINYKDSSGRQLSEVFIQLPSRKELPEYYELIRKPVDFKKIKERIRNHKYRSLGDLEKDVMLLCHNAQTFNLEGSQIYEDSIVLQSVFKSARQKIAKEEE
Protocol: as §1

[9] = ternary complex with SMARCA4BD, mean ± SD
[10] = ternary complex with SMARCA2BD, mean ± SD

| SMILES | cooperativity α (SMARCA2BD) [1] | Solubility pH 6.8 ([2]; pH 6.8) | Mic. Stab. Human [3] | Mic. Stab. Human QH [3] | Mic. Stab. Mouse [3] | Mic. Stab. Mouse QH [3] | Mic. Stab. Rat [3] | Mic. Stab. Rat QH [3] | Caco-2 Pab ([4]; Caco-2) | EC50 [5] | cooperativity α (PBRM1BD) [6] | Kd [7, 9] | Kd ([7]; ternary, individual replicates) | alpha [7] | Kd [8, 10] | Kd ([8]; ternary, individual replicates) | alpha [8] | also measured |
| --- | --- | --- | --- | --- | --- | --- | --- | --- | --- | --- | --- | --- | --- | --- | --- | --- | --- | --- |
| Cc1ncsc1-c1ccc([C@H](CCCCN2CCC(c3ccc4c(c3)n(C3CCCC3)c3nc(=O)c5c(Br)cccc5n43)CC2)NC(=O)[C@@H]2C[C@@H](O)CN2C(=O)[C@@H](NC(=O)C2(F)CC2)C(C)(C)C)cc1 [compound 25] | 2.2 ± 0.6 | <1.000 ug/mL | 25 % QH | 24.800% | <24 % QH | <24.200% | <23 % QH | <23.100% | <4 10-6 cm/s | 3 ± 1 nM | 11.2 ± 2.1 | 14 ± 2 nM | 12.8 nM and 13.3 nM and 15.6 nM | 0.4 | 36 ± 15 nM | 22.7 nM and 51.6 nM and 32.9 nM | 0.2 | Solubility pH 4.5 ([2]; pH 4.5): <1.000 ug/mL; Caco-2 Pab ([4]; Caco-2, a to b): <4.3e-06 cm/s |
| Cc1ncsc1-c1ccc([C@H](COC(C)CN2CCC(c3ccc4c(c3)n(C3CCCC3)c3nc(=O)c5c(Br)cccc5n43)CC2)NC(=O)[C@@H]2C[C@@H](O)CN2C(=O)[C@@H](NC(=O)C2(N(C)C)CC2)C(C)(C)C)cc1 (stereo partly drawn) [compound 10] | 10.1 ± 3.8 | 2.000 ug/mL | 86 % QH | 85.500% | 68 ± 2 % QH | 66.900% and 69.700% | 51 ± 2 % QH | 49.700% and 52.900% | 6 10-6 cm/s | 8 ± 1 nM | 4.2 ± 0.4 | 172 ± 115 nM | 305 nM and 102 nM and 109 nM | 0.7 | 159 ± 80 nM | 74 nM and 233 nM and 171 nM | 0.8 | solubility at 24 h ([2]; pH 4.5, aqueous buffer, pH 4.5, read-out: Solubility pH 4.5): 210 µg/mL (≈ 195 µM); solubility at 24 h ([2]; pH 6.8, aqueous buffer, pH 6.8, read-out: Solubility pH 6.8): < 1 µg/mL; Caco-2 Efflux ratio ([4]; Caco-2): 5; Caco-2 Pba ([4]; Caco-2, b to a): 21 ×10⁻⁶ cm/s; Modified Caco-2 Efflux ratio ([4]; Modified Caco-2): 36; Modified Caco-2 Pba ([4]; Modified Caco-2, b to a): 99 ×10⁻⁶ cm/s and 88 ×10⁻⁶ cm/s |
